US7723072B2, “Polypeptide factor from a thermophilic eubacterial species and use thereof in the production of functional, heterologous proteins in an expression host” (University of Limerick, priority 2003, dated 2010)
Like-named read-outs stand apart in the source and are kept apart here.

B1: partial czrB: Truncated form of the CzrB protein, 92 amino acids (SEQ ID NO: 2), C-terminal cytoplasmic tail (protein)
chain: MDEGLPPEEVERIRAFLQERIRGRALEVHDLKTRRAGPRSFLEFHLVVRGDTPVEEAHRLCDELERALAQAFPGLQATIHVEPEGERKRTNP
modifications: Thermus thermophilus CzrB
B2: czrB: Polypeptide factor from Thermus thermophilus, 291 amino acids (SEQ ID NO: 1), co-expressed in E. coli (protein)
chain: MAEGAARLSLVVALLVLGLKAFAYLLTGSVALLSDALESLVNVAAALAALLALRVARKPPDQNHPFGHTKAEYVSAVLEGVLVVLAALWIAREALPRLLHPVPLEGLGLGLGVSLLASLLNGLLAYHLLKEGRRHRSPALTADGYHVLSDVLTSLGVVLGVGLAGLTGLWVLDPLLALAVAGQILFLGYRIVRESVGGLMDEGLPPEEVERIRAFLQERIRGRALEVHDLKTRRAGPRSFLEFHLVVRGDTPVEEAHRLCDELERALAQAFPGLQATIHVEPEGERKRTNP
modifications: Thermus thermophilus CzrB

Key:
Type in all cases: cell-based
[1] = tested on: E. coli JM83 containing pUC
[2] = tested on: E. coli JM83 containing pUC with cloned czrB; assay: Minimal inhibitory concentrations (MICs) for metal cations, JM83 containing pUC with cloned czrB; conditions: clone +pUC-czrB
E. coli JM83 = assay: Minimal inhibitory concentrations (MICs) for metal cations, E. coli JM83; conditions: 40 h at 37° C.
E. coli cultures [3] = assay: Phage titers of E. coli clones; conditions: pHB102 vs pHB102-czrB; 10 and 22 h after induction
Description: (§1) Individual clones were analysed by restriction digestion after 22 h of induction to confirm that they contained both the Thermus insert and the recombinant antibody gene. […] Immunoplate wells (Nunc) were coated with 100 μl of FITC-BSA and blocked with 5% skimmed milk in PBST. After washing, 100 μl of phage solutions containing 0.5% skimmed milk were added and incubated for 2 h at 25° C. Phage particles were detected using a peroxidase-conjugated anti-M13 antibody (1:3000 in PBST; Amersham Pharmacia Biotech Inc.) and development was carried out using a BM Blue POD soluble substrate (Roche Diagnostics). After stopping the reaction using 25 μl of 1 N H2SO4, the absorbance was read at 405 nm. […] The results are depicted in FIGS. 6 and 7.
FIG. 6 depicts phage titers of clones expressing czrB. The phage titers of clones containing pHB102 phagemid vector or pHB102-czrB expressed as colony forming units (cfu) were determined 10 and 22 h after induction.

E. coli cultures [4] = assay: Anti-FITC ELISA of phage-displayed functional antibody; conditions: 10 and 22 h after induction
Description: as §1
FIG. 7 depicts ELISA analysis of clones expressing czrB. […] Results are shown for samples taken 10 and 22 h after induction.

E. coli cells [5] = assay: Growth (OD600) of E. coli clones during bacteriophage and recombinant antibody production; conditions: pHB102 phagemid, during phage and antibody production
Description: E. coli cells harbouring the Thermus library were inoculated to an OD600<0.05 in 10 ml 2xYT medium containing tetracycline (15 μg/ml), additional salts (8.6 mM NaCl; 2.5 mM KCl; 10 mM MgCl2) and 0.4% glucose. After 1 h at 37° C., 30 μg/ml chloramphenicol was added, followed by 10^10 pfu of helper phage (VCSM13 helper phage; Stratagene) at an OD600 of 0.5. Incubation at 50° C. for 5 min was followed by the addition of 50 ml 2xYT containing tetracycline, chloramphenicol, additional salts and 0.5 mM isopropyl-β-D-thiogalactoside (IPTG). The culture was shaken at 40° C. for 2 h and, after the addition of 30 μg/ml kanamycin, grown for a further 12-14 h at 40° C. Phage particles were precipitated from culture supernatants by two PEG precipitation steps and resuspended in 1 ml PBS (8 g NaCl, 0.24 g KH2PO4, 1.44 g Na2HPO4, 0.2 g KCl in 1 L, pH 7.4). Immunotubes (Nunc) were coated overnight at 4° C. with 1 μg/ml fluorescein-isothiocyanate coupled to bovine serum albumin (FITC-BSA) (Bothmann, H. and Plückthun, A (1998) supra) in PBS. […]
E. coli cells infected with phage were grown as described in Example 1. The OD600 was read at hourly intervals for the first 8-10 h after induction. […]

E. coli cells [6] = assay: Growth of E. coli with czrB expressed from lac promoter in pUC-based vector; conditions: Plac induction; no bacteriophage, no recombinant antibody
From the text: To investigate this theory further, czrB was expressed from a lac promoter in a standard pUC-based expression vector, in the absence of bacteriophage particles and the recombinant antibody used in experiments thus far. […] This raises the possibility that CzrB, in its full length form or as a truncated version, might function as an “universal chaperone”, which would facilitate the expression of any recombinant or heterologous proteins produced in an E. coli host.

E. coli cells [7] = assay: Intracellular zinc concentration in E. coli clones (atomic absorption); conditions: 1 h incubation in 0, 1, 2, 5 mM extracellular zinc; vs JM83 and pUC alone
From the text: Metal resistances of the type observed with the czrB clones can be the result of metal sequestering or modification of metal transport processes. However, based on reports of CzrB homologues in other organisms it was postulated that the protein CzrB provided resistance to heavy metal ions by an efflux mechanism rather than by metal sequestering. Therefore, the ability of the T. thermophilus CzrB protein to pump zinc ions out of the E. coli cells in which it was expressed was investigated. Intracellular zinc concentrations were measured as follows: E. coli clones were grown at 37° C. in LB medium (100 μg/ml ampicillin, 25 μg/ml streptomycin) in the presence or absence of 165 μM ZnCl2 until an OD600 of 1.0 was reached. After addition of 1, 2 or 5 mM ZnCl2, growth was continued for 30 min, 1 h or 2 h, with control cultures grown in the absence of ZnCl2. […] The zinc concentration was measured in the supernatant using an atomic absorption spectrophotometer (Varian SpectrAA-400 Plus), with standard solutions prepared immediately before use from commercial standards (Fisher Scientific). […] The results are shown in FIG. 3 which depicts a quantification of intracellular zinc levels in E. coli clones: JM83 (“JM83”), JM83 containing pUC (“pUC”), and JM83 containing pUC-czrB without (“czrB”) and with (“czrB (Zn)”) a zinc pre-induction step. […]

[8] = clone +pUC, pre-induction cadmium (80 μM CdCl2)
[9] = clone +pUC, pre-induction cobalt (220 μM CoCl2)
[10] = clone +pUC, pre-induction none, 40 h at 37° C.
[11] = clone +pUC, pre-induction zinc (165 μM ZnCl2)
[12] = pre-induction cadmium (80 μM CdCl2)
[13] = pre-induction cobalt (220 μM CoCl2)
[14] = pre-induction zinc (165 μM ZnCl2)

| Molecule | MIC [1, 8] [µM] | MIC [1, 9] [µM] | MIC [1, 10] [µM] | MIC [1, 11] [µM] | MIC [2, 12] [µM] | MIC [2, 13] [µM] | MIC ([2]; pre-induction none) [µM] | MIC [2, 14] [µM] | MIC (E. coli JM83; clone JM83, pre-induction none) [µM] | MIC [1] [µM] | MIC ([1]; 40 h at 37° C.) [µM] | MIC (E. coli JM83) [µM] | phage titres relative to cultures containing the vector alone (E. coli cultures [3]) | amount of functional antibody relative to cultures containing the vector alone (E. coli cultures [4]) | growth characteristics (E. coli cells [5]) | E. coli cell growth relative to cells containing the vector alone (E. coli cells [6]) | cell densities attained relative to cells containing just the phagemid vector (E. coli cells [5]) | levels of zinc in E. coli cells (E. coli cells [7]) |
| --- | --- | --- | --- | --- | --- | --- | --- | --- | --- | --- | --- | --- | --- | --- | --- | --- | --- | --- |
| [Cl-].[Cl-].[Zn+2] [Zinc, ZnCl2] | 1600 | 1600 | 1600 | 1600 | 2200 | 2100 | 1900 | 2500 | 2000 | – | – | – | – | – | – | – | – | – |
| [Cl][Cd][Cl] [Cadmium, CdCl2] | 700 | 900 | 900 | 900 | 900 | 1100 | 1000 | 1000 | 900 | – | – | – | – | – | – | – | – | – |
| [Cl-].[Cl-].[Co+2] [Cobalt, CoCl2] | – | – | – | – | 2100 | 2100 | 2100 | 2100 | – | 2100 | 2100 | 2100 | – | – | – | – | – | – |
| B1 | – | – | – | – | – | – | – | – | – | – | – | – | intermediate between the full-length gene and the control culture | intermediate between the full-length gene and the control culture | intermediate between the full-length czrB clone and cells containing the phagemid vector | – | – | – |
| B2 | – | – | – | – | – | – | – | – | – | – | – | – | two-fold higher | more than twice | – | same pattern of E. coli cell growth | greater than 2 fold | significantly reduce |
